Data as given in the supplement of paper PMC10307832.

Experiments:
Assay in all cases: relative viability (nuclei count vs DMSO), 5 days (fraction); higher = more cells survive
Midostaurin + Alpelisib = compound: CO[C@@H]1[C@H](N(C)C(=O)c2ccccc2)C[C@H]2O[C@]1(C)n1c3ccccc3c3c4c(c5c6ccccc6n2c5c31)C(=O)NC4 [Midostaurin] + Cc1nc(NC(=O)N2CCC[C@H]2C(N)=O)sc1-c1ccnc(C(C)(C)C(F)(F)F)c1 [Alpelisib] (partner 2 µM)
In short: (§1)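 One day after seeding in 1536-well plates, lung cancer cell lines were dosed by pin tool. Dosing was either single-drug or a fixed anchor-drug dose plus five library-drug doses (not always all listed) in √10 steps. After 5 days, nuclei were stained in one fix-and-stain step and counted on 4× images, and relative viability is the nuclei count of treated wells over that of vehicle wells, given as the median of duplicate plates.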

[1] = compound: COc1cc(-c2nn([C@H]3CC[C@H](N4CCN(C(C)=O)CC4)CC3)c3ncnc(N)c23)ccc1NC(=O)c1cc2ccccc2n1C + CC(=O)c1c(C)c2cnc(Nc3ccc(N4CCNCC4)cn3)nc2n(C2CCCC2)c1=O [Palbociclib] (partner 0.5 µM)
In short: as §1

[2] = compound: COc1cc(-c2nn([C@H]3CC[C@H](N4CCN(C(C)=O)CC4)CC3)c3ncnc(N)c23)ccc1NC(=O)c1cc2ccccc2n1C + COc1cc2c(Oc3ccc(NC(=O)C4(C(=O)Nc5ccc(F)cc5)CC4)cc3F)ccnc2cc1OCCCN1CCOCC1 [Foretinib] (partner 0.25 µM)
In short: as §1

Midostaurin + Dasatinib = compound: CO[C@@H]1[C@H](N(C)C(=O)c2ccccc2)C[C@H]2O[C@]1(C)n1c3ccccc3c3c4c(c5c6ccccc6n2c5c31)C(=O)NC4 [Midostaurin] + Cc1nc(Nc2ncc(C(=O)Nc3c(C)cccc3Cl)s2)cc(N2CCN(CCO)CC2)n1 [Dasatinib] (partner 0.075 µM)
In short: as §1

[3] = compound: COc1cc(-c2nn([C@H]3CC[C@H](N4CCN(C(C)=O)CC4)CC3)c3ncnc(N)c23)ccc1NC(=O)c1cc2ccccc2n1C + C[C@@H](Oc1cc(-c2cnn(C3CCNCC3)c2)cnc1N)c1c(Cl)ccc(F)c1Cl [Crizotinib] (partner 1 µM)
In short: as §1

Cell Line: HCC-15
- relative viability (Midostaurin + Alpelisib; first compound 0.01 µM): 0.944
- relative viability (Midostaurin + Alpelisib; first compound 0.03162 µM): 0.838
- relative viability (Midostaurin + Alpelisib; first compound 0.1 µM): 0.954
- relative viability (Midostaurin + Alpelisib; first compound 0.3162 µM): 0.925
- relative viability ([1]; first compound 0.0128 µM): 0.555
- relative viability ([1]; first compound 0.04048 µM): 0.663
- relative viability ([1]; first compound 0.128 µM): 0.839
- relative viability ([1]; first compound 1.28 µM): 0.705
- relative viability ([2]; first compound 0.0128 µM): 1.13
- relative viability ([2]; first compound 0.04048 µM): 1.09
- relative viability ([2]; first compound 0.128 µM): 0.94
- relative viability ([2]; first compound 1.28 µM): 0.877
- relative viability (Midostaurin + Dasatinib; first compound 0.01 µM): 0.735
- relative viability (Midostaurin + Dasatinib; first compound 0.03162 µM): 0.655
- relative viability (Midostaurin + Dasatinib; first compound 0.1 µM): 0.657
- relative viability (Midostaurin + Dasatinib; first compound 0.3162 µM): 0.635
- relative viability ([3]; first compound 0.0128 µM): 0.89
- relative viability ([3]; first compound 0.04048 µM): 0.772
- relative viability ([3]; first compound 0.128 µM): 0.808
- relative viability ([3]; first compound 1.28 µM): 0.67

Cell Line: HCC-44
- relative viability (Midostaurin + Alpelisib; first compound 0.01 µM): 0.831
- relative viability (Midostaurin + Alpelisib; first compound 0.03162 µM): 0.837
- relative viability (Midostaurin + Alpelisib; first compound 0.1 µM): 0.761
- relative viability (Midostaurin + Alpelisib; first compound 0.3162 µM): 0.607
- relative viability ([1]; first compound 0.0128 µM): 1.04
- relative viability ([1]; first compound 0.04048 µM): 0.975
- relative viability ([1]; first compound 0.128 µM): 0.972
- relative viability ([1]; first compound 1.28 µM): 1.29
- relative viability ([3]; first compound 0.0128 µM): 0.931
- relative viability ([3]; first compound 0.04048 µM): 0.825
- relative viability ([3]; first compound 0.128 µM): 0.847
- relative viability ([3]; first compound 1.28 µM): 1.06

Cell Line: HCC-78
- relative viability (Midostaurin + Alpelisib; first compound 0.01 µM): 0.413
- relative viability (Midostaurin + Alpelisib; first compound 0.03162 µM): 0.305
- relative viability (Midostaurin + Alpelisib; first compound 0.1 µM): 0.358
- relative viability (Midostaurin + Alpelisib; first compound 0.3162 µM): 0.296
- relative viability ([1]; first compound 0.0128 µM): 0.479
- relative viability ([1]; first compound 0.04048 µM): 0.433
- relative viability ([1]; first compound 0.128 µM): 0.465
- relative viability ([1]; first compound 1.28 µM): 0.381
- relative viability ([2]; first compound 0.0128 µM): 0.544
- relative viability ([2]; first compound 0.04048 µM): 0.733
- relative viability ([2]; first compound 0.128 µM): 0.467
- relative viability ([2]; first compound 1.28 µM): 0.376
- relative viability (Midostaurin + Dasatinib; first compound 0.01 µM): 0.375
- relative viability (Midostaurin + Dasatinib; first compound 0.03162 µM): 0.371
- relative viability (Midostaurin + Dasatinib; first compound 0.1 µM): 0.373
- relative viability (Midostaurin + Dasatinib; first compound 0.3162 µM): 0.219
- relative viability ([3]; first compound 0.0128 µM): 0.338
- relative viability ([3]; first compound 0.04048 µM): 0.432
- relative viability ([3]; first compound 0.128 µM): 0.325
- relative viability ([3]; first compound 1.28 µM): 0.18

Cell Line: HCC-366
- relative viability (Midostaurin + Alpelisib; first compound 0.01 µM): 0.331
- relative viability (Midostaurin + Alpelisib; first compound 0.03162 µM): 0.297
- relative viability (Midostaurin + Alpelisib; first compound 0.1 µM): 0.318
- relative viability (Midostaurin + Alpelisib; first compound 0.3162 µM): 0.323
- relative viability ([1]; first compound 0.0128 µM): 0.485
- relative viability ([1]; first compound 0.04048 µM): 0.431
- relative viability ([1]; first compound 0.128 µM): 0.403
- relative viability ([1]; first compound 1.28 µM): 0.256
- relative viability ([2]; first compound 0.0128 µM): 0.948
- relative viability ([2]; first compound 0.04048 µM): 0.841
- relative viability ([2]; first compound 0.128 µM): 0.98
- relative viability ([2]; first compound 1.28 µM): 0.757
- relative viability (Midostaurin + Dasatinib; first compound 0.01 µM): 0.634
- relative viability (Midostaurin + Dasatinib; first compound 0.03162 µM): 0.583
- relative viability (Midostaurin + Dasatinib; first compound 0.1 µM): 0.537
- relative viability (Midostaurin + Dasatinib; first compound 0.3162 µM): 0.638
- relative viability ([3]; first compound 0.0128 µM): 0.692
- relative viability ([3]; first compound 0.04048 µM): 0.679
- relative viability ([3]; first compound 0.128 µM): 0.546
- relative viability ([3]; first compound 1.28 µM): 0.281

Cell Line: HCC-827
- relative viability (Midostaurin + Alpelisib; first compound 0.01 µM): 0.984
- relative viability (Midostaurin + Alpelisib; first compound 0.03162 µM): 1
- relative viability (Midostaurin + Alpelisib; first compound 0.1 µM): 0.948
- relative viability (Midostaurin + Alpelisib; first compound 0.3162 µM): 1.02
- relative viability ([1]; first compound 0.0128 µM): 0.492
- relative viability ([1]; first compound 0.04048 µM): 0.455
- relative viability ([1]; first compound 0.128 µM): 0.484
- relative viability ([1]; first compound 1.28 µM): 0.218
- relative viability ([2]; first compound 0.0128 µM): 0.998
- relative viability ([2]; first compound 0.04048 µM): 0.943
- relative viability ([2]; first compound 0.128 µM): 1.02
- relative viability ([2]; first compound 1.28 µM): 0.756
- relative viability (Midostaurin + Dasatinib; first compound 0.01 µM): 0.417
- relative viability (Midostaurin + Dasatinib; first compound 0.03162 µM): 0.441
- relative viability (Midostaurin + Dasatinib; first compound 0.1 µM): 0.386
- relative viability (Midostaurin + Dasatinib; first compound 0.3162 µM): 0.341
- relative viability ([3]; first compound 0.0128 µM): 0.903
- relative viability ([3]; first compound 0.04048 µM): 0.963
- relative viability ([3]; first compound 0.128 µM): 0.94
- relative viability ([3]; first compound 1.28 µM): 0.685

Cell Line: HOP-62
- relative viability (Midostaurin + Alpelisib; first compound 0.01 µM): 0.957
- relative viability (Midostaurin + Alpelisib; first compound 0.03162 µM): 0.636
- relative viability (Midostaurin + Alpelisib; first compound 0.1 µM): 0.913
- relative viability (Midostaurin + Alpelisib; first compound 0.3162 µM): 1.32
- relative viability ([1]; first compound 0.0128 µM): 0.503
- relative viability ([1]; first compound 0.04048 µM): 0.468
- relative viability ([1]; first compound 0.128 µM): 0.411
- relative viability ([1]; first compound 1.28 µM): 0.432
- relative viability ([2]; first compound 0.0128 µM): 1.16
- relative viability ([2]; first compound 0.04048 µM): 1.12
- relative viability ([2]; first compound 0.128 µM): 1.07
- relative viability ([2]; first compound 1.28 µM): 1.03
- relative viability (Midostaurin + Dasatinib; first compound 0.01 µM): 0.674
- relative viability (Midostaurin + Dasatinib; first compound 0.03162 µM): 0.675
- relative viability (Midostaurin + Dasatinib; first compound 0.1 µM): 0.643
- relative viability (Midostaurin + Dasatinib; first compound 0.3162 µM): 0.509
- relative viability ([3]; first compound 0.0128 µM): 0.887
- relative viability ([3]; first compound 0.04048 µM): 0.957
- relative viability ([3]; first compound 0.128 µM): 0.803
- relative viability ([3]; first compound 1.28 µM): 0.714

Cell Line: IA-LM
- relative viability (Midostaurin + Alpelisib; first compound 0.01 µM): 0.853
- relative viability (Midostaurin + Alpelisib; first compound 0.1 µM): 0.821
- relative viability (Midostaurin + Alpelisib; first compound 0.3162 µM): 0.891
- relative viability ([2]; first compound 0.0128 µM): 1.19
- relative viability ([2]; first compound 0.04048 µM): 1.1
- relative viability ([2]; first compound 0.128 µM): 1.16
- relative viability ([2]; first compound 1.28 µM): 0.97
- relative viability ([3]; first compound 0.0128 µM): 1.02
- relative viability ([3]; first compound 0.04048 µM): 1.07
- relative viability ([3]; first compound 0.128 µM): 0.903
- relative viability ([3]; first compound 1.28 µM): 1.1

Cell Line: LC-2-ad
- relative viability (Midostaurin + Alpelisib; first compound 0.01 µM): 0.82
- relative viability (Midostaurin + Alpelisib; first compound 0.03162 µM): 0.78
- relative viability (Midostaurin + Alpelisib; first compound 0.1 µM): 0.878
- relative viability (Midostaurin + Alpelisib; first compound 0.3162 µM): 0.654
- relative viability ([1]; first compound 0.0128 µM): 0.543
- relative viability ([1]; first compound 0.04048 µM): 0.508
- relative viability ([1]; first compound 0.128 µM): 0.502
- relative viability ([1]; first compound 1.28 µM): 0.511
- relative viability ([2]; first compound 0.0128 µM): 0.932
- relative viability ([2]; first compound 0.04048 µM): 0.976
- relative viability ([2]; first compound 0.128 µM): 0.886
- relative viability ([2]; first compound 1.28 µM): 0.662
- relative viability (Midostaurin + Dasatinib; first compound 0.01 µM): 0.476
- relative viability (Midostaurin + Dasatinib; first compound 0.03162 µM): 0.582
- relative viability (Midostaurin + Dasatinib; first compound 0.1 µM): 0.579
- relative viability (Midostaurin + Dasatinib; first compound 0.3162 µM): 0.537
- relative viability ([3]; first compound 0.0128 µM): 0.443
- relative viability ([3]; first compound 0.04048 µM): 0.399
- relative viability ([3]; first compound 0.128 µM): 0.414
- relative viability ([3]; first compound 1.28 µM): 0.409

Cell Line: NCI-H522
- relative viability ([1]; first compound 0.0128 µM): 1.08
- relative viability ([1]; first compound 0.04048 µM): 0.864
- relative viability ([1]; first compound 0.128 µM): 0.822
- relative viability ([1]; first compound 1.28 µM): 0.778
- relative viability (Midostaurin + Dasatinib; first compound 0.01 µM): 0.981
- relative viability (Midostaurin + Dasatinib; first compound 0.03162 µM): 0.995
- relative viability (Midostaurin + Dasatinib; first compound 0.1 µM): 0.789
- relative viability (Midostaurin + Dasatinib; first compound 0.3162 µM): 1.04
